Test results reported in ChEMBL document CHEMBL6078725, “Discovery of novel xanthohumol C derivatives regulating XRCC2 transcription and expression for the treatment of colorectal cancer” (Bioorg Med Chem, 2025).
Calls of active or inactive are those of the source. No cut-off for these calls is given here.

Key:
[1] = test system: HCT-116; assay: Antiproliferative activity against human HCT-116 cells incubated for 48 hrs by MTS assay; type: functional, cell-based; conditions: HCT-116, 48 h
[2] = test system: RKO; assay: Antiproliferative activity against human RKO cells incubated for 48 hrs by MTS assay; type: functional, cell-based
[3] = Acute toxicity in BALB/c mouse assessed as morphological change in kidney at 10 to 90 mg/kg, po measured for 7 days by H and E staining based analysis; type: organism-based; conditions: in vivo, 168 h, dose 10-90 mg/kg, time 7 day
[4] = test system: HCT-116; assay: Antitumor activity against human HCT-116 cells xenografted in BALB/c mouse assessed as inhibition of tumor proliferation at 10 to 40 mg/kg, ip administered for 2 weeks by Ki67 staining based immunohistochemical analysis; type: functional, organism-based; conditions: dose 10-40 mg/kg
[5] = test system: HCT-116; assay: Induction of cell cycle arrest in human HCT-116 cells at 5 uM incubated for 2 to 48 hrs by PI staining based flow cytometry analysis; type: functional; conditions: time 2-48 hrs
[6] = test system: HCT-116; assay: Inhibition of colony formation in human HCT-116 cells by crystal violet staining based light microscopic analysis; type: functional, cell-based; conditions: dose 1.25-5 µM
[7] = Acute toxicity in BALB/c mouse assessed as change in AST level at 10 to 90 mg/kg, po measured for 7 days; type: organism-based; conditions: in vivo, 168 h, dose 10-90 mg/kg, time 7 day
[8] = Toxicity in BALB/c mouse implanted with human HCT-116 cells assessed as morphological changes in tumor t at 10 to 40 mg/kg, ip administered for 2 weeks by H and E staining based analysis; type: organism-based; conditions: in vivo, 336 h, dose 10-40 mg/kg
[9] = test system: RKO; assay: Inhibition of colony formation in human RKO cells by crystal violet staining based light microscopic analysis; type: functional, cell-based; conditions: dose 1.25-5 µM
[10] = Acute toxicity in BALB/c mouse assessed as change in lung weight at 10 to 90 mg/kg, po measured for 7 days; type: organism-based; conditions: in vivo, 168 h, dose 10-90 mg/kg, time 7 day
[11] = Tmax in male Sprague-Dawley rat at 10 mg/kg, po measured upto 48 hrs by UHPLC-MS/MS analysis; type: ADME, organism-based; conditions: in vivo
[12] = Toxicity in BALB/c mouse implanted with human HCT-116 cells assessed as change in body weight at 10 to 40 mg/kg, ip administered for 2 weeks; type: organism-based; conditions: in vivo, 336 h, dose 10-40 mg/kg
[13] = Cmax in male Sprague-Dawley rat at 10 mg/kg, po measured upto 48 hrs by UHPLC-MS/MS analysis; type: ADME, organism-based; conditions: in vivo
[14] = AUC (0 to infinity) in male Sprague-Dawley rat at 10 mg/kg, po measured upto 48 hrs by UHPLC-MS/MS analysis; type: ADME, organism-based; conditions: in vivo
[15] = Acute toxicity in BALB/c mouse assessed as change in creatine level at 10 to 90 mg/kg, po measured for 7 days; type: organism-based; conditions: in vivo, 168 h, dose 10-90 mg/kg, time 7 day
[16] = test system: HCT-116; assay: Inhibition of DNA replication in human HCT-116 cells assessed as reduction in EdU positive cells incubated for 48 hrs by EdU staining based fluorescence microscopic analysis; type: functional, cell-based; conditions: dose 1.25-5 µM
[17] = AUC (0 to infinity) in male Sprague-Dawley rat at 2 mg/kg, iv measured upto 8 hrs by UHPLC-MS/MS analysis; type: ADME, organism-based; conditions: in vivo
[18] = Tmax in male Sprague-Dawley rat at 2 mg/kg, iv measured upto 8 hrs by UHPLC-MS/MS analysis; type: ADME, organism-based; conditions: in vivo
[19] = Acute toxicity in BALB/c mouse assessed as morphological change in liver at 10 to 90 mg/kg, po measured for 7 days by H and E staining based analysis; type: organism-based; conditions: in vivo, 168 h, dose 10-90 mg/kg, time 7 day
[20] = test system: HCT-116; assay: Induction of DNA damage in human HCT-116 cells assessed as increase in 53BP1 foci positive cells at 1.25 to 5 uM incubated for 48 hrs by immunofluorescence staining based analysis; type: functional, cell-based; conditions: dose 1.25-5 µM
[21] = AUC (0 to t) in male Sprague-Dawley rat at 10 mg/kg, po measured upto 48 hrs by UHPLC-MS/MS analysis; type: ADME, organism-based; conditions: in vivo
[22] = Acute toxicity in BALB/c mouse assessed as change in kidney weight at 10 to 90 mg/kg, po measured for 7 days; type: organism-based; conditions: in vivo, 168 h, dose 10-90 mg/kg, time 7 day
[23] = Half life in male Sprague-Dawley rat at 10 mg/kg, po measured upto 48 hrs by UHPLC-MS/MS analysis; type: ADME, organism-based; conditions: in vivo
[24] = Acute toxicity in BALB/c mouse assessed as change in heart weight at 10 to 90 mg/kg, po measured for 7 days; type: organism-based; conditions: in vivo, 168 h, dose 10-90 mg/kg, time 7 day
[25] = Oral bioavailability in male Sprague-Dawley rat at 10 mg/kg measured upto 48 hrs by UHPLC-MS/MS analysis; type: ADME, organism-based; conditions: in vivo
[26] = Acute toxicity in BALB/c mouse assessed as change in liver weight at 10 to 90 mg/kg, po measured for 7 days; type: organism-based; conditions: in vivo, 168 h, dose 10-90 mg/kg, time 7 day
[27] = test system: HCT-116; assay: Antitumor activity against human HCT-116 cells xenografted in BALB/c mouse assessed as increase in DNA damage by measuring gamma-H2AX level at 10 to 40 mg/kg, ip administered for 2 weeks by immunohistochemical analysis; type: functional, organism-based; conditions: dose 10-40 mg/kg
[28] = test system: RKO; assay: Inhibition of DNA replication in human RKO cells assessed as reduction in EdU positive cells incubated for 48 hrs by EdU staining based fluorescence microscopic analysis; type: functional, cell-based; conditions: dose 1.25-5 µM
[29] = Bioavailability in male Sprague-Dawley rat […] by UHPLC-MS/MS analysis; type: ADME, organism-based; conditions: in vivo
[30] = test system: HCT-116; assay: Inhibition of colony formation in human HCT-116 cells assessed as reduction in colony formation at 5 uM by crystal violet staining based light microscopic analysis; type: functional
[31] = Acute toxicity in BALB/c mouse assessed as change in body weight at 10 to 90 mg/kg, po measured for 7 days; type: organism-based; conditions: in vivo, 168 h, dose 10-90 mg/kg, time 7 day
[32] = test system: HCT-116; assay: Antitumor activity against human HCT-116 cells xenografted in BALB/c mouse assessed as inhibition of BRCA1 expression at 10 to 40 mg/kg, ip administered for 2 weeks by Western blot analysis; type: functional, organism-based; conditions: dose 10-40 mg/kg
[33] = test system: RKO; assay: Inhibition of colony formation in human RKO cells assessed as reduction in colony formation at 5 uM by crystal violet staining based light microscopic analysis; type: functional
[34] = Acute toxicity in BALB/c mouse assessed as change in spleen weight at 10 to 90 mg/kg, po measured for 7 days; type: organism-based; conditions: in vivo, 168 h, dose 10-90 mg/kg, time 7 day
[35] = test system: HCT-116; assay: Inhibition of XRCC2 expression in human HCT-116 cells incubated for 48 hrs Western blot analysis; type: functional, cell-based; conditions: dose 1.25-5 µM
[36] = Cmax in male Sprague-Dawley rat at 2 mg/kg, iv measured upto 8 hrs by UHPLC-MS/MS analysis; type: ADME, organism-based; conditions: in vivo
[37] = test system: HCT-116; assay: Antitumor activity against human HCT-116 cells xenografted in BALB/c mouse assessed as inhibition of tumor growth at 10 to 40 mg/kg, ip administered for 2 weeks; type: functional, organism-based; conditions: dose 10-40 mg/kg
[38] = test system: HCT-116; assay: Inhibition of BRCA1 expression in human HCT-116 cells incubated for 48 hrs Western blot analysis; type: functional, cell-based; conditions: dose 1.25-5 µM
[39] = AUC (0 to t) in male Sprague-Dawley rat at 2 mg/kg, iv measured upto 8 hrs by UHPLC-MS/MS analysis; type: ADME, organism-based; conditions: in vivo
[40] = Acute toxicity in BALB/c mouse assessed as change in ALT level at 10 to 90 mg/kg, po measured for 7 days; type: organism-based; conditions: in vivo, 168 h, dose 10-90 mg/kg, time 7 day
[41] = test system: HCT-116; assay: Inhibition of BRCA1 expression in human HCT-116 cells assessed as reduction in fluorescence intensity at 1.25 to 5 uM incubated for 48 hrs immunofluorescence analysis; type: functional, cell-based; conditions: dose 1.25-5 µM
[42] = test system: HCT-116; assay: Antitumor activity against human HCT-116 cells xenografted in BALB/c mouse assessed as inhibition of XRCC2 expression at 10 to 40 mg/kg, ip administered for 2 weeks by Western blot analysis; type: functional, organism-based; conditions: dose 10-40 mg/kg
[43] = Half life in male Sprague-Dawley rat at 2 mg/kg, iv measured upto 8 hrs by UHPLC-MS/MS analysis; type: ADME, organism-based; conditions: in vivo

## COc1cc2c(c(O)c1C(=O)/C=C/c1cccc(N3CCN(C)CC3)c1)C=CC(C)(C)O2
[1]
  IC50: 12.5 µM
[2]
  IC50: 128 µM

## COc1ccc(/C=C/C(=O)c2c(OC)cc3c(c2O)C=CC(C)(C)O3)cc1Br
[1]
  IC50: 44.6 µM
[2]
  IC50: 35.6 µM

## COc1cc2c(c(O)c1C(=O)/C=C/c1ccc(N3CCCCC3)cc1)C=CC(C)(C)O2
[1]
  IC50: 200 µM
[2]
  IC50: > 200 µM

## COc1cc2c(c(O)c1C(=O)/C=C/c1ccc(O)c(Br)c1)C=CC(C)(C)O2
[1]
  IC50: 24.6 µM
[2]
  IC50: 21.1 µM

## COc1cc2c(c(O)c1C(=O)/C=C/c1ccc(N(C)C)cc1)C=CC(C)(C)O2
[1]
  IC50: > 200 µM
[2]
  IC50: 118 µM

## COc1cc2c(c(O)c1C(=O)/C=C/c1ccc(N3CCCC3)cc1)C=CC(C)(C)O2
[1]
  IC50: > 200 µM
[2]
  IC50: > 200 µM

## COc1cc(/C=C/C(=O)c2c(OC)cc3c(c2O)C=CC(C)(C)O3)ccc1O
[1]
  IC50: 24.8 µM
[2]
  IC50: 17.6 µM

## COc1cc2c(c(O)c1C(=O)/C=C/c1ccccc1N1CCN(C)CC1)C=CC(C)(C)O2
[3]
  Activity: Non-toxic
[4]
  Activity: Active
[5]
  Activity: Active
[6]
  inhibition: Dose-dependent-effect
[7]
  Activity: Non-toxic
[8]
  Activity: Non-toxic
[9]
  inhibition: Dose-dependent-effect
[10]
  Activity: Non-toxic
[11]
  Tmax: 4 h
[12]
  Activity: Non-toxic
[13]
  Cmax: 152 ng/mL
[14]
  AUC(0-inf): 3000 ng·h/mL
[1]
  IC50: 5.4 µM
[15]
  Activity: Non-toxic
[16]
  inhibition: Dose-dependent-effect
[17]
  AUC: 1610 ng·h/mL
[18]
  Tmax: 2.28 min
[19]
  Activity: Non-toxic
[20]
  Activity: Active
[21]
  AUC(0-t) at 48 h: 1270 µg·h/mL
[22]
  Activity: Non-toxic
[23]
  half-life: 2.89 days
[24]
  Activity: Non-toxic
[25]
  bioavailability: 37.5%
[26]
  Activity: Non-toxic
[27]
  Activity: Active
[28]
  inhibition: Dose-dependent-effect
[29]
  bioavailability: 37.5%
[30]
  inhibition at 5 µM: 2%
[31]
  Activity: Non-toxic
[32]
  Activity: Active
[33]
  inhibition at 5 µM: 2%
[34]
  Activity: Non-toxic
[35]
  inhibition: Dose-dependent-effect
[36]
  Cmax: 359 ng/mL
[37]
  Activity: Active
[38]
  inhibition: Dose-dependent-effect
[39]
  AUC(0-t) at 8 h: 866 µg·h/mL
[2]
  IC50: 4.01 µM
[40]
  Activity: Non-toxic
[41]
  inhibition: Active
[42]
  Activity: Active
[43]
  t1/2: 49.2 min

## COc1cc2c(c(OC)c1C(=O)/C=C/c1ccc(O)cc1)C=CC(C)(C)O2
[1]
  IC50: 46.4 µM
[2]
  IC50: 25.6 µM
